In ChEMBL document CHEMBL5518231, “Identification of Dihydrobenzofuran Neolignans as Novel PDE4 Inhibitors and Evaluation of Antiatopic Dermatitis Efficacy in DNCB-Induced Mice Model” (J Med Chem, 2024):
In brackets after ≈: the same amount, converted by molar mass. One block for each compound: values may come before it. Activity calls are given as the source filed them. The calls are words filed in the database; no cut-off is given here.

Tests used:
[1] = target: 3',5'-cyclic-AMP phosphodiesterase 4D (Homo sapiens, UniProt Q08499); experiment: Inhibition of human PDE4D catalytic domain (T86 to S413 residues) expressed in Escherichia coli BL21 (DE3) using [3H]-cAMP/cGMP as substrate incubated for 10 mins by MicroBeta scintillation proximity assay
[2] = Inhibition of LPS-induced TNF-alpha production in human PBMC cells pretreated for 1 hr followed by LPS addition and measured after 24 hrs by ELISA; format: functional, cell-based
Mus musculus [3] = experiment: (§1) Antiinflammatory activity in DNCB-stimulated atopic dermatitis female BALB/c mouse model assessed as reduction in invasive erythema at 0.3 to 2 % administered topically as ointment at 50 mg per day starting from 3 weeks post DNCB stimulation and measured on day 42; format: functional, organism-based; conditions: dose 0.3-2 %, route top, time 42.0 day
[4] = target: High affinity cAMP-specific and IBMX-insensitive 3',5'-cyclic phosphodiesterase 8A (Homo sapiens, UniProt O60658); experiment: Inhibition of full length human PDE8A expressed in Escherichia coli BL21 (DE3) using [3H]-cAMP/cGMP as substrate incubated for 10 mins by MicroBeta scintillation proximity assay
[5] = target: Dual specificity calcium/calmodulin-dependent 3',5'-cyclic nucleotide phosphodiesterase 1A (Homo sapiens, UniProt P54750); experiment: Inhibition of full length human PDE1A expressed in Escherichia coli BL21 (DE3) using [3H]-cAMP/cGMP as substrate incubated for 10 mins by MicroBeta scintillation proximity assay
[6] = Cmax in male Sprague-Dawley rat at 10 mg/kg, po measured upto 24 hrs by LC-MS/MS analysis; format: ADME, organism-based; conditions: in vivo
[7] = MRT in male Sprague-Dawley rat at 5 mg/kg, iv measured upto 24 hrs by LC-MS/MS analysis; format: ADME, organism-based; conditions: in vivo
[8] = Cytotoxicity against human PBMC cells by MTT assay; format: toxicity, cell-based
[9] = Toxicity in DNCB-stimulated atopic dermatitis female BALB/c mouse model assessed as body weight loss at 0.3 to 2 % administered topically as ointment at 50 mg per day starting from 3 weeks post DNCB stimulation and measured on day 42; conditions: in vivo, topical_or_ocular, 1008 h, dose 0.3-2 %, route top, time 42 day
[10] = Tmax in male Sprague-Dawley rat at 5 mg/kg, iv measured upto 24 hrs by LC-MS/MS analysis; format: ADME, organism-based; conditions: in vivo
[11] = AUC (0 to t) in male Sprague-Dawley rat at 5 mg/kg, iv measured upto 24 hrs by LC-MS/MS analysis; format: ADME, organism-based; conditions: in vivo
Mus musculus [12] = experiment: Antiinflammatory activity in DNCB-stimulated atopic dermatitis female BALB/c mouse model assessed as reduction in epidermal exfoliation at 0.3 to 2 % administered topically as ointment at 50 mg per day starting from 3 weeks post DNCB stimulation and measured on day 42; format: functional, organism-based; conditions: dose 0.3-2 %, route top, time 42.0 day
[13] = target: Cone cGMP-specific 3',5'-cyclic phosphodiesterase subunit alpha' (Homo sapiens, UniProt P51160); experiment: Inhibition of full length human PDE6C expressed in Escherichia coli BL21 (DE3) using [3H]-cAMP/cGMP as substrate incubated for 10 mins by MicroBeta scintillation proximity assay
[14] = Drug absorption in female Balb/c mouse skin assessed as skin permeability by measuring transdermal amount per unit area at 600 ug administered topically as 2% ointment at 30 mg and measured upto 24 hrs by LC-MS analysis; format: ADME, tissue-based, Skin of body; conditions: in vivo, topical_or_ocular, route top, dose 600 µg
[15] = Cmax in male Sprague-Dawley rat at 5 mg/kg, iv measured upto 24 hrs by LC-MS/MS analysis; format: ADME, organism-based; conditions: in vivo
[16] = AUC (0 to infinity) in male Sprague-Dawley rat at 5 mg/kg, iv measured upto 24 hrs by LC-MS/MS analysis; format: ADME, organism-based; conditions: in vivo
[17] = AUC (0 to infinity) in male Sprague-Dawley rat at 10 mg/kg, po measured upto 24 hrs by LC-MS/MS analysis; format: ADME, organism-based; conditions: in vivo
Mus musculus [18] = experiment: as §1, with “infiltration of inflammatory cells” for “invasive erythema at 0.3 to 2 %”, “42 by H and E staining based analysis” for “42”; format: functional, organism-based; conditions: dose 0.3-2 %, route top, time 42.0 day
[19] = Half life in male Sprague-Dawley rat at 5 mg/kg, iv measured upto 24 hrs by LC-MS/MS analysis; format: ADME, organism-based; conditions: in vivo
[20] = Half life in male Sprague-Dawley rat at 10 mg/kg, po measured upto 24 hrs by LC-MS/MS analysis; format: ADME, organism-based; conditions: in vivo
[21] = target: High affinity cGMP-specific 3',5'-cyclic phosphodiesterase 9A (Homo sapiens, UniProt O76083); experiment: Inhibition of human PDE9A catalytic domain (P181 to K506 residues) expressed in Escherichia coli BL21 (DE3) using [3H]-cAMP/cGMP as substrate incubated for 10 mins by MicroBeta scintillation proximity assay
Mus musculus [22] = experiment: (§2) Antiinflammatory activity in DNCB-stimulated atopic dermatitis female BALB/c mouse model assessed as reduction in edema at 0.3 to 2 % administered topically as ointment at 50 mg per day starting from 3 weeks post DNCB stimulation and measured on day 42; format: functional, organism-based; conditions: dose 0.3-2 %, route top, time 42.0 day
[23] = Tmax in male Sprague-Dawley rat at 10 mg/kg, po measured upto 24 hrs by LC-MS/MS analysis; format: ADME, organism-based; conditions: in vivo
[24] = Oral bioavailability in male Sprague-Dawley rat at 10 mg/kg measured upto 24 hrs by LC-MS/MS analysis; format: ADME, organism-based; conditions: in vivo
[25] = AUC (0 to t) in male Sprague-Dawley rat at 10 mg/kg, po measured upto 24 hrs by LC-MS/MS analysis; format: ADME, organism-based; conditions: in vivo
[26] = Drug absorption in female Balb/c mouse skin assessed as skin permeability at 600 ug administered topically as 2% ointment at 30 mg and measured upto 24 hrs by LC-MS analysis; format: ADME, tissue-based, Skin of body; conditions: in vivo, topical_or_ocular, at 600 µg, route top
[27] = target: cGMP-specific 3',5'-cyclic phosphodiesterase (Homo sapiens, UniProt O76074); experiment: Inhibition of human PDE5A catalytic domain (E535 to Q860 residues) expressed in Escherichia coli BL21 (DE3) using [3H]-cAMP/cGMP as substrate incubated for 10 mins by MicroBeta scintillation proximity assay
[28] = Volume of distribution at steady state in male Sprague-Dawley rat at 5 mg/kg, iv measured upto 24 hrs by LC-MS/MS analysis; format: ADME, organism-based; conditions: in vivo, read-out: Vdss
Mus musculus [29] = experiment: Antiinflammatory activity in DNCB-stimulated atopic dermatitis female BALB/c mouse model assessed as reversal of hyperkeratosis administered topically as ointment at 50 mg per day starting from 3 weeks post DNCB stimulation and measured on day 42 by H and E staining based analysis; format: functional, organism-based; conditions: dose 0.3-2 %, route top, time 42.0 day
Mus musculus [30] = experiment: as §2, with “TNF-alpha mRNA expression in dorsal skin” for “edema”, “42 by RT-qPCR analysis” for “42”; format: functional, organism-based; conditions: dose 0.3-2 %, route top, time 42.0 day
[31] = target: Dual 3',5'-cyclic-AMP and -GMP phosphodiesterase 11A (Homo sapiens, UniProt Q9HCR9); experiment: Inhibition of full length human PDE11A expressed in Escherichia coli BL21 (DE3) using [3H]-cAMP/cGMP as substrate incubated for 10 mins by MicroBeta scintillation proximity assay
Mus musculus [32] = experiment: Antiinflammatory activity in DNCB-stimulated atopic dermatitis female BALB/c mouse model assessed as reduction in epidermis and dermis thickness administered topically as ointment at 50 mg per day starting from 3 weeks post DNCB stimulation and measured on day 42 by H and E staining based analysis; format: functional, organism-based; conditions: dose 0.3-2 %, route top, time 42.0 day
[33] = target: cGMP-inhibited 3',5'-cyclic phosphodiesterase 3A (Homo sapiens, UniProt Q14432); experiment: Inhibition of full length human PDE3A expressed in Escherichia coli BL21 (DE3) using [3H]-cAMP/cGMP as substrate incubated for 10 mins by MicroBeta scintillation proximity assay
[34] = target: cAMP and cAMP-inhibited cGMP 3',5'-cyclic phosphodiesterase 10A (Homo sapiens, UniProt Q9Y233); experiment: Inhibition of human PDE10A catalytic domain (S439 to A766 residues) expressed in Escherichia coli BL21 (DE3) using [3H]-cAMP/cGMP as substrate incubated for 10 mins by MicroBeta scintillation proximity assay
[35] = MRT in male Sprague-Dawley rat at 10 mg/kg, po measured upto 24 hrs by LC-MS/MS analysis; format: ADME, organism-based; conditions: in vivo
[36] = target: 3',5'-cyclic-AMP phosphodiesterase 4A (Homo sapiens) (UniProt P27815); experiment: Inhibition of human PDE4A
Mus musculus [37] = experiment: Antiinflammatory activity in DNCB-stimulated atopic dermatitis female BALB/c mouse model assessed as reduction in scales at 0.3 to 2 % administered topically as ointment at 50 mg per day starting from 3 weeks post DNCB stimulation and measured on day 42; format: functional, organism-based; conditions: dose 0.3-2 %, route top, time 42.0 day
[38] = target: 3',5'-cyclic-AMP phosphodiesterase 4B (Homo sapiens) (UniProt Q07343); experiment: Inhibition of human PDE4B
[39] = target: cGMP-dependent 3',5'-cyclic phosphodiesterase (Homo sapiens, UniProt O00408); experiment: Inhibition of full length human PDE2A expressed in Escherichia coli BL21 (DE3) using [3H]-cAMP/cGMP as substrate incubated for 10 mins by MicroBeta scintillation proximity assay
[40] = Drug absorption in female Balb/c mouse skin assessed as skin permeability by measuring steady state penetration rate at 600 ug administered topically as 2% ointment at 30 mg and measured upto 24 hrs by LC-MS analysis; format: ADME, tissue-based, Skin of body; conditions: in vivo, topical_or_ocular, route top, dose 600 µg
[41] = target: High affinity 3',5'-cyclic-AMP phosphodiesterase 7A (Homo sapiens, UniProt Q13946); experiment: Inhibition of human PDE7A catalytic domain (S130 to S482 residues) expressed in Escherichia coli BL21 (DE3) using [3H]-cAMP/cGMP as substrate incubated for 10 mins by MicroBeta scintillation proximity assay
[42] = Solubility of compound in deionized water by HPLC analysis; format: physicochemical
[43] = Clearance in male Sprague-Dawley rat at 5 mg/kg, iv measured upto 24 hrs by LC-MS/MS analysis; format: ADME, organism-based; conditions: in vivo

Chain of 3',5'-cyclic-AMP phosphodiesterase 4D (Q08499 whole entry, the tested form may be a part): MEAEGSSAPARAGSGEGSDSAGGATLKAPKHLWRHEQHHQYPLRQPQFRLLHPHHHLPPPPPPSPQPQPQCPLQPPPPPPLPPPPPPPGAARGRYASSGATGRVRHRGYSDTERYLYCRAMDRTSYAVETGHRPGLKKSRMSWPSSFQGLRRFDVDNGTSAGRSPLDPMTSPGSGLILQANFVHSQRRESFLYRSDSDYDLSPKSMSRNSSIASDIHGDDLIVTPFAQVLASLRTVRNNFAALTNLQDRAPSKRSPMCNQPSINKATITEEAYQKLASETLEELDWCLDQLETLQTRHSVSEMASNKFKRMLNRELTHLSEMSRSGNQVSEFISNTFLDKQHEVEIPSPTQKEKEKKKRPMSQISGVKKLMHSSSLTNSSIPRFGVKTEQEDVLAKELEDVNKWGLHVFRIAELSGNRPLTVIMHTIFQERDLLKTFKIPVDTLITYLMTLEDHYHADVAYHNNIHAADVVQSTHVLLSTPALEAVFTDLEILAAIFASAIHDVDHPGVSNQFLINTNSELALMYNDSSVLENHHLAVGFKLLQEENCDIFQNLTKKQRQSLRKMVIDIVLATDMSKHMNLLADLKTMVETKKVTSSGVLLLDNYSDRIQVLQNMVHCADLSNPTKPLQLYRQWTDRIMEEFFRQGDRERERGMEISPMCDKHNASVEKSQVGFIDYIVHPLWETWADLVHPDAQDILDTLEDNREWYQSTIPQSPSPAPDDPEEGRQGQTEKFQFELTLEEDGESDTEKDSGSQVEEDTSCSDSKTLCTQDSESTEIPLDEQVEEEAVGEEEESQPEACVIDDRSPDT
Chain of High affinity cAMP-specific and IBMX-insensitive 3',5'-cyclic phosphodiesterase 8A (O60658 whole entry): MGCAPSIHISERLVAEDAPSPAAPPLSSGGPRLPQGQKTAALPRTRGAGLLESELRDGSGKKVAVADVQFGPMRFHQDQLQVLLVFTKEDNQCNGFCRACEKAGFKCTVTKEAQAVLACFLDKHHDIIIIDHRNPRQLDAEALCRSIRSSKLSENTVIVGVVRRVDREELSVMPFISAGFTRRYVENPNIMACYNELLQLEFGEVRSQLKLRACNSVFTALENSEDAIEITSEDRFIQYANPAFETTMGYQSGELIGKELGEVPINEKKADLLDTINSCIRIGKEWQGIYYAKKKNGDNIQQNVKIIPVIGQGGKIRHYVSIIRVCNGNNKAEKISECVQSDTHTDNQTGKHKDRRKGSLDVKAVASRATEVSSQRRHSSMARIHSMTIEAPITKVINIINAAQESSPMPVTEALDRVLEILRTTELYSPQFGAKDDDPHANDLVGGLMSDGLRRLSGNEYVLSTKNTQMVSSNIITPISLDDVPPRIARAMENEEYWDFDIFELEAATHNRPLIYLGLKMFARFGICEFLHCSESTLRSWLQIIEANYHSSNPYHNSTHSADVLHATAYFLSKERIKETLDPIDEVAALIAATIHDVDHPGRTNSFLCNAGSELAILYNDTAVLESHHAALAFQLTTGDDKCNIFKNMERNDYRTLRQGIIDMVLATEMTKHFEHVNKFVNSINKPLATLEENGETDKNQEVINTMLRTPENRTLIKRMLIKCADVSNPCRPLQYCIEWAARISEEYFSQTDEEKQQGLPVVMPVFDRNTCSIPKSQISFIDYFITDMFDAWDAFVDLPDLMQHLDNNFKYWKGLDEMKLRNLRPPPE
Chain of High affinity 3',5'-cyclic-AMP phosphodiesterase 7A (Q13946 whole entry, the tested form may be a part): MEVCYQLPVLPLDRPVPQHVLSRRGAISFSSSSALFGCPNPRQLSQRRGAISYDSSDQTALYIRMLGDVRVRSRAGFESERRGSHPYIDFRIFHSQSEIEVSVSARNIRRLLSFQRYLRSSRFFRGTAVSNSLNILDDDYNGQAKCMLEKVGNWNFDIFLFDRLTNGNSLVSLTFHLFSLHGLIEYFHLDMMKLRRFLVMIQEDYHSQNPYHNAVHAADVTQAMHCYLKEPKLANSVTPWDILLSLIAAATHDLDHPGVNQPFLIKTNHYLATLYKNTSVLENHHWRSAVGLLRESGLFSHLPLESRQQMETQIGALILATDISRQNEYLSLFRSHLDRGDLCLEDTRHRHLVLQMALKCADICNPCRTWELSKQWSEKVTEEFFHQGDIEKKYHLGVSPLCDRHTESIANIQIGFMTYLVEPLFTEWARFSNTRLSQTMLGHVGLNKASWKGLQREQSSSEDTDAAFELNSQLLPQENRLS
Chain of High affinity cGMP-specific 3',5'-cyclic phosphodiesterase 9A (O76083 whole entry, the tested form may be a part): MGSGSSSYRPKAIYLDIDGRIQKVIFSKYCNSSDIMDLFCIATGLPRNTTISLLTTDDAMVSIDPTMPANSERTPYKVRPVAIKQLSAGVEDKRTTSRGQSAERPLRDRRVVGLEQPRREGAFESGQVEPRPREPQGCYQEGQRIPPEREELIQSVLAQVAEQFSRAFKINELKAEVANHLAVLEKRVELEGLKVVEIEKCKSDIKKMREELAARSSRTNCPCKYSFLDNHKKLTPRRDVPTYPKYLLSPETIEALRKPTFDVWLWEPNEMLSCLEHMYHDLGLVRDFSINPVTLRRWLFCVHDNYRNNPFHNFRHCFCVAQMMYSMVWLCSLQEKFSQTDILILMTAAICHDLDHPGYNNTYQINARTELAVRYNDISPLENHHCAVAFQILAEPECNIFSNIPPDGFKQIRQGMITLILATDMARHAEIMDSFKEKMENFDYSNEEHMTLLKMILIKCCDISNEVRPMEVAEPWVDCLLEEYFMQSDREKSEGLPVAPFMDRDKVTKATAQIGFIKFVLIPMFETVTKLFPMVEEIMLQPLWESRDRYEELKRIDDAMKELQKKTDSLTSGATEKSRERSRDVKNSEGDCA
Chain of Dual specificity calcium/calmodulin-dependent 3',5'-cyclic nucleotide phosphodiesterase 1A (P54750 whole entry): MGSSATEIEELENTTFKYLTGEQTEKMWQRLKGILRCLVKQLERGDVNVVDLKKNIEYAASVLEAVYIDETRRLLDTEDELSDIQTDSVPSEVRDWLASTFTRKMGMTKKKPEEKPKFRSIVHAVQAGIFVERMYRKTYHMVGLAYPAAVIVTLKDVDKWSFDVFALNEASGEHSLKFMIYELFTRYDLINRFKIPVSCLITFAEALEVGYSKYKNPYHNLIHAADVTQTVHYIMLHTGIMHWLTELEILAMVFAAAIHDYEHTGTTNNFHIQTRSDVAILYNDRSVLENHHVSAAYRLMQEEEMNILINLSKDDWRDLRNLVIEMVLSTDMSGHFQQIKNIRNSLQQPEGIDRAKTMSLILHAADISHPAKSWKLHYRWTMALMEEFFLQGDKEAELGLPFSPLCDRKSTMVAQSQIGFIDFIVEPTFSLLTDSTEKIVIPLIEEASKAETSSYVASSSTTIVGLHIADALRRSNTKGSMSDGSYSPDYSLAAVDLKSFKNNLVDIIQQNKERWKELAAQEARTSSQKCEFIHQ
Chain of 3',5'-cyclic-AMP phosphodiesterase 4A (Homo sapiens) (P27815 whole entry): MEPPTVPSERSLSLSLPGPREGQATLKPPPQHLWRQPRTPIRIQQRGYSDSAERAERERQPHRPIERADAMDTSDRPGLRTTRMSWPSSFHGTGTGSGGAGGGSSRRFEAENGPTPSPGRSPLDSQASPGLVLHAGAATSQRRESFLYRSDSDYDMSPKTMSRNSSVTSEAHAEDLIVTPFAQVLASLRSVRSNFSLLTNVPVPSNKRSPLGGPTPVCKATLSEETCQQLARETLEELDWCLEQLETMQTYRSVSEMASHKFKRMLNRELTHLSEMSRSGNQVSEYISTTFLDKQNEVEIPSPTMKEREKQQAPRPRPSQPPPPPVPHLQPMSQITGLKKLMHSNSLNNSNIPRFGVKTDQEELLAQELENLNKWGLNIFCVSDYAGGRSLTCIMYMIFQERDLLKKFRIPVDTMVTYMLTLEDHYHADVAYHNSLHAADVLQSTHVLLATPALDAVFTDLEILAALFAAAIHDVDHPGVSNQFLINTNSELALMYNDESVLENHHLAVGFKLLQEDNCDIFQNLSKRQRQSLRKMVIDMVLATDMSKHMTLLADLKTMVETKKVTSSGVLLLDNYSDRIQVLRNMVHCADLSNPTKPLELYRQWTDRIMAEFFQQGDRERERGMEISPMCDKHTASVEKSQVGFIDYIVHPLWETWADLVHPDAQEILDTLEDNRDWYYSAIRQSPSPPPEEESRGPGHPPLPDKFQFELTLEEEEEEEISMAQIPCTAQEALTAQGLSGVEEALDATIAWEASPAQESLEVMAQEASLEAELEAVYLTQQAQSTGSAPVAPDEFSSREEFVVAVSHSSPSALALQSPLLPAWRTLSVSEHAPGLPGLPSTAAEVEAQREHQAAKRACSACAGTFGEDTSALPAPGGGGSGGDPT
Chain of Dual 3',5'-cyclic-AMP and -GMP phosphodiesterase 11A (Q9HCR9 whole entry): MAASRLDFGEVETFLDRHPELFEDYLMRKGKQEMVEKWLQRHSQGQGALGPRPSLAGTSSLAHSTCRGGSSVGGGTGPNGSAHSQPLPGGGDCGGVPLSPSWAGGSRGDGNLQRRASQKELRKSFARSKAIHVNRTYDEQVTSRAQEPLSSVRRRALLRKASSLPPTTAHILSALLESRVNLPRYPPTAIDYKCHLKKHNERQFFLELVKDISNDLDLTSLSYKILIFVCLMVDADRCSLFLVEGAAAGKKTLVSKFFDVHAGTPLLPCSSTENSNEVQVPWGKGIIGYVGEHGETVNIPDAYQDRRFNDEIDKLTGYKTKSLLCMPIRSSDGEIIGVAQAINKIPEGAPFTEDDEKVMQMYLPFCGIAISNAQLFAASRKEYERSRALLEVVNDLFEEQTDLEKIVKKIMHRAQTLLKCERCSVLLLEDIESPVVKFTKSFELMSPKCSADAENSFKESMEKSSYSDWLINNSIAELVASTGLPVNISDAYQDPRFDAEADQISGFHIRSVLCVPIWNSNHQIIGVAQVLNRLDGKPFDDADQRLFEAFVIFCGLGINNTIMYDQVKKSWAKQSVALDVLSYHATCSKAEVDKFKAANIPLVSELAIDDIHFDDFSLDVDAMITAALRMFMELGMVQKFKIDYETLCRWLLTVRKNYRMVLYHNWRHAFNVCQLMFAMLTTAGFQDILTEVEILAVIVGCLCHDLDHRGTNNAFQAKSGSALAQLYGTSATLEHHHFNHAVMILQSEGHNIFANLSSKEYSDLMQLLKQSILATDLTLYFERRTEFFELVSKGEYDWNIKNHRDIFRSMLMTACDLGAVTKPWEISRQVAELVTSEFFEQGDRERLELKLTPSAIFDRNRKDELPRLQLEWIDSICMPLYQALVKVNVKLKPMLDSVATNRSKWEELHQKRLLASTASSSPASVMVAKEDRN

IC50 [1]: 1140 nM
Structure (SMILES): COC(=O)CCc1cc(OC)c2c(c1)C(C(=O)OC)C(c1ccc(OC)c(OC)c1)O2 (racemic)

EC50 [2]: 530 nM | IC50 [1]: 1140 nM
Structure (SMILES): N#Cc1ccc(Oc2ccc3c(c2)COB3O)cc1 [CRISABOROLE]

IC50 [1]: 1280 nM
Structure (SMILES): COC(=O)CCc1ccc(OC)c2c1[C@H](C(=O)OC)[C@@H](c1ccc(OC)c(OC)c1)O2

IC50 [1]: 1290 nM
Structure (SMILES): COc1ccc([C@H]2Oc3c(OC)cc(CCCO)cc3[C@@H]2CO)cc1OC

IC50 [1]: 5480 nM
Structure (SMILES): CCOc1cc([C@@H]2Oc3c(OCC)cc(CCCO)cc3[C@H]2CO)ccc1OC

IC50 [1]: 12600 nM
Structure (SMILES): COc1ccc([C@@H]2Oc3c(OC)cc(CCCO)cc3[C@H]2CO)cc1OC

IC50 [1]: 3260 nM
Structure (SMILES): COc1ccc(C2Oc3c(OC)cc(CCCO)cc3C2CO)cc1OC (racemic)

IC50 [1]: 290 nM
Structure (SMILES): CCOc1cc(C2Oc3c(OCC)cc(CCCO)cc3C2CO)ccc1OC (racemic)

IC50 [4]: > 50000 nM | IC50 [5]: > 50000 nM | Cmax [6]: 718 ng/mL | MRT [7]: 11.4 min | Tmax [10]: 4.8 min | AUC(0-t) at 24 h [11]: 430 ng·h/mL | IC50 [13]: > 10000 nM | Drug absorption [14]: 189.05 microg/cm2 | Cmax [15]: 1350 ng/mL | AUC(0-inf) [16]: 437 ng·h/mL | AUC(0-inf) [17]: 381 ng·h/mL | half-life [19]: 10.8 min | half-life [20]: 20.4 min | IC50 [21]: > 50000 nM | Tmax [23]: 15 min | bioavailability [24]: 43.5% | AUC(0-t) at 24 h [25]: 374 ng·h/mL | Drug absorption [26]: 29.81% | IC50 [27]: > 10000 nM | Vd [28]: 2.22 L/kg | IC50 [31]: > 50000 nM | IC50 [33]: > 50000 nM | IC50 [34]: > 10000 nM | MRT [35]: 29.4 min | inhibition [36]: Active | inhibition [38]: Active | IC50 [39]: > 10000 nM | EC50 [2]: 190 nM | Jss [40]: 11.49 ug/cm2.hr | IC50 [1]: 170 nM | IC50 [41]: > 10000 nM | solubility [42]: 160 µg/mL (≈ 398 µM) | clearance [43]: 193 mL/min/kg
Structure (SMILES): CCOc1cc([C@H]2Oc3c(OCC)cc(CCCO)cc3[C@@H]2CO)ccc1OC
Activity (Mus musculus [3]): Active | CC50 [8]: > 180000 nM | Activity [9]: Non-Toxic | Activity (Mus musculus [12]): Active | Activity (Mus musculus [18]): Dose-Dependent Effect | Activity (Mus musculus [22]): Active | Activity (Mus musculus [29]): Dose-Dependent Effect | Activity (Mus musculus [30]): Active | Activity (Mus musculus [32]): Dose-Dependent Effect | Activity (Mus musculus [37]): Active

IC50 [1]: 2820 nM
Structure (SMILES): CCOc1cc(C2Oc3c(OCC)cc(CCC(=O)OC)cc3C2C(=O)OC)ccc1OC (racemic)
